The test system of assay [1] is CNV-G gectosome cell entry. The format is cell-based, human. The note with it: read-out: IC50, CNV-G gectosome inhibition.
Assay [2] deals with CNV-G pseudotyped lentiviral infection. Format: cell-based.
Assay [3] deals with VSV-G gectosome uptake, 293ColorSwitch cells. Format: cell-based. The note with it: Cre cargo.
For assay [4], the system named is CNV-G gectosome uptake, 293ColorSwitch cells. The format is cell-based.
Assay [5] has as its target BlaM-Vpr-GFP1-10. As to the kind of experiment: cell-based or functional assay.

For orientation: IC50 means the point on the concentration scale where inhibition reaches its midpoint.

Turning to `C/C1=C/C(=O)O[C@@H]2C[C@@H](CC[C@H](C)/C=C\CC1)O[C@@](O)([C@@H]1CSC(=O)N1)C2` [Latrunculin B], the concentration for half-maximal inhibition (IC50) in assay [1] stood at 1960 nM. The “effect on CNV-G pseudotyped lentiviral infection” value in assay [2] is listed as “effect of Latrunculin B on CNV-G”.

With `CCCCCCCCCCCCCCCCOP(=O)([O-])OCC[N+](C)(C)C` [Milterfosine], the “inhibition of VSV-G gectosome uptake” value in assay [3] was “NOT VSV-G gectosome uptake”. Also, the “inhibition of CNV-G gectosome uptake” value in assay [4] is given as “specifically inhibit”.

With `COc1ccc2c(c1)CC[C@@H]1[C@@H]2CC[C@]2(C)[C@@H](NCCCCCCN3C(=O)C=CC3=O)CC[C@@H]12` [U-73122], the IC50 in assay [1] stood at 3030 nM.

Consider CNV-G-EGFP (from UniProt P13180 23-530), for which the efficiency of cargo transfer against the CNV-G-GFP11 and BlaM-GFP1-10 pair in assay [5] is 100 fold less.

The record behind these values is US20250177555A1 (priority 2022, published 2025).
